Assay results reported in patent publication US20230085307A1, “PYRIDAZINONE COMPOUND AND HERBICIDE” (NISSAN CHEMICAL CORPORATION, priority 2019, published 2023).

Legend:
[1] = tested on: Japanese bulrush; experiment: Test Example 2: herbicidal activity, application during weed generation under submerged conditions (Table 17, symbol B); format: in vivo, Japanese bulrush (Schoenoplectus juncoides); details: AAH 320 g/ha; application during weed generation, submerged conditions
Outline: (§1)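 3-wk visual-criteria score after one water-surface dose. Emulsion formulation, water-diluted to set rate; applied at 1–2 leaf stage; alluvial soil, 4 cm standing water; seeds co-sown; greenhouse 25–30° C.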

[2] = tested on: late watergrass; experiment: Test Example 2: herbicidal activity, application during weed generation under submerged conditions (Table 17, symbol A); format: in vivo, late watergrass (Echinochloa oryzicola); details: AAH 320 g/ha; application during weed generation, submerged conditions
Outline: as §1

[3] = tested on: redroot pigweed; experiment: Test Example 4: herbicidal effect by soil treatment (Table 19, symbol N); format: in vivo, redroot pigweed (Amaranthus retroflexus); details: amount of applied herbicide 320 g/ha
Outline: (§2)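 Soil-surface application: an emulsion agent diluted with water to the predetermined dose is sprayed uniformly over seeds lying under roughly 1.5 cm of sterilized diluvial soil. Boxes stay in a greenhouse at 25° C. to 30° C. Three weeks later, each species is graded on previously defined criteria.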

[4] = tested on: barnyard grass; experiment: Test Example 3: herbicidal effect by foliage application, Wagner pot (Table 18, symbol H); format: in vivo, barnyard grass (Echinochloa crus-galli); details: amount of applied herbicide 320 g/ha
Outline: (§3)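 Plants were sown in alluvial soil held under 0.1–0.5 cm standing water and grown 14 days in a greenhouse at 25–30 °C. An emulsifiable formulation, water-diluted to the set dose, was then sprayed onto the foliage, and effects were scored three weeks later using previously defined criteria.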

[5] = tested on: oval-leafed pondweed; experiment: Test Example 2: herbicidal activity, application during weed generation under submerged conditions (Table 17, symbol C); format: in vivo, oval-leafed pondweed (Monochoria vaginalis); details: AAH 320 g/ha; application during weed generation, submerged conditions
Outline: as §1

[6] = tested on: blackgrass; experiment: Test Example 4: herbicidal effect by soil treatment (Table 19, symbol J); format: in vivo, blackgrass (Alopecurus myosuroides); details: amount of applied herbicide 320 g/ha
Outline: as §2

[7] = tested on: late watergrass; experiment: Test Example 1: herbicidal activity, application before weed generation under submerged conditions (Table 16, symbol A); format: in vivo, late watergrass (Echinochloa oryzicola); details: 320 g/ha applied herbicide
Outline: (§4)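 Submerged Wagner pots (alluvial soil, 4 cm water) sown with weed seeds and planted with 2.5-leaf rice seedlings; emulsifiable concentrate diluted in water applied to water surface on sowing day. Held in greenhouse at 25-30 °C; injury scored 0-5 by herbicidal rate after three weeks.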

[8] = tested on: persian speedwell; experiment: Test Example 4: herbicidal effect by soil treatment (Table 19, symbol R); format: in vivo, Persian speedwell (Veronica persica); details: amount of applied herbicide 320 g/ha
Outline: as §2

[9] = tested on: windgrass; experiment: Test Example 4: herbicidal effect by soil treatment (Table 19, symbol L); format: in vivo, windgrass (Apera spica-venti); details: amount of applied herbicide 320 g/ha
Outline: as §2

[10] = tested on: southern crabgrass; experiment: Test Example 4: herbicidal effect by soil treatment (Table 19, symbol F); format: in vivo, southern crabgrass (Digitaria ciliaris); details: amount of applied herbicide 320 g/ha
Outline: as §2

[11] = tested on: green foxtail; experiment: Test Example 4: herbicidal effect by soil treatment (Table 19, symbol G); format: in vivo, green foxtail (Setaria viridis); details: amount of applied herbicide 320 g/ha
Outline: as §2

[12] = tested on: Chinese sprangletop; experiment: Test Example 3: herbicidal effect by foliage application, Wagner pot (Table 18, symbol D); format: in vivo, chinese sprangletop (Leptochloa chinensis); details: amount of applied herbicide 320 g/ha
Outline: as §3

[13] = tested on: rice flat sedge; experiment: Test Example 3: herbicidal effect by foliage application, Wagner pot (Table 18, symbol E); format: in vivo, rice flat sedge (Cyperus iria); details: amount of applied herbicide 320 g/ha
Outline: as §3

[14] = tested on: velvetleaf; experiment: Test Example 4: herbicidal effect by soil treatment (Table 19, symbol M); format: in vivo, velvetleaf (Abutilon theophrasti); details: amount of applied herbicide 320 g/ha
Outline: as §2

[15] = tested on: barnyard grass; experiment: Test Example 4: herbicidal effect by soil treatment (Table 19, symbol H); format: in vivo, barnyard grass (Echinochloa crus-galli); details: amount of applied herbicide 320 g/ha
Outline: as §2

[16] = tested on: wild oat; experiment: Test Example 4: herbicidal effect by soil treatment (Table 19, symbol I); format: in vivo, wild oat (Avena fatua); details: amount of applied herbicide 320 g/ha
Outline: as §2

[17] = tested on: lambsquarters; experiment: Test Example 4: herbicidal effect by soil treatment (Table 19, symbol O); format: in vivo, lambsquarters (Chenopodium album); details: amount of applied herbicide 320 g/ha
Outline: as §2

[18] = tested on: chickweed; experiment: Test Example 4: herbicidal effect by soil treatment (Table 19, symbol P); format: in vivo, common chickweed (Stellaria media); details: amount of applied herbicide 320 g/ha
Outline: as §2

[19] = tested on: oval-leafed pondweed; experiment: Test Example 1: herbicidal activity, application before weed generation under submerged conditions (Table 16, symbol C); format: in vivo, oval-leafed pondweed (Monochoria vaginalis); details: 320 g/ha applied herbicide
Outline: as §4

[20] = tested on: Japanese bulrush; experiment: Test Example 1: herbicidal activity, application before weed generation under submerged conditions (Table 16, symbol B); format: in vivo, Japanese bulrush (Schoenoplectus juncoides); details: 320 g/ha applied herbicide
Outline: as §4

[21] = tested on: Italian ryegrass; experiment: Test Example 4: herbicidal effect by soil treatment (Table 19, symbol K); format: in vivo, Italian ryegrass (Lolium multiflorum); details: amount of applied herbicide 320 g/ha
Outline: as §2

CCCC(=O)Oc1c(C)nn(C)c(=O)c1-c1c(-c2ccc(Cl)cc2F)sc2ccc(F)cc12 [2-349]
herbicidal effect rating, B: Japanese bulrush [1]: 3 (Herbicidal rate of 40% or more and less than 70%)
herbicidal effect rating, A: late watergrass [2]: 3 (Herbicidal rate of 40% or more and less than 70%)
herbicidal effect on N: redroot pigweed [3]: 0 (Herbicidal rate of 5% or less (almost no effect))
herbicidal effect on H: barnyard grass [4]: 5 (Herbicidal rate of 90% or more (almost completely withered))
herbicidal effect rating, C: oval-leafed pondweed [5]: 3 (Herbicidal rate of 40% or more and less than 70%)
herbicidal effect on J: blackgrass [6]: 0 (Herbicidal rate of 5% or less (almost no effect))
Herbicidal effect on A: late watergrass (grade 0-5) [7]: 3 (Herbicidal rate of 40% or more and less than 70%)
herbicidal effect on R: persian speedwell [8]: 4 (Herbicidal rate of 70% or more and less than 90%)
herbicidal effect on L: windgrass [9]: 0 (Herbicidal rate of 5% or less (almost no effect))
herbicidal effect on F: southern crabgrass [10]: 0 (Herbicidal rate of 5% or less (almost no effect))
herbicidal effect on G: green foxtail [11]: 0 (Herbicidal rate of 5% or less (almost no effect))
herbicidal effect on D: Chinese sprangletop [12]: 5 (Herbicidal rate of 90% or more (almost completely withered))
herbicidal effect on E: rice flat sedge [13]: 4 (Herbicidal rate of 70% or more and less than 90%)
herbicidal effect on M: velvetleaf [14]: 0 (Herbicidal rate of 5% or less (almost no effect))
herbicidal effect on H: barnyard grass [15]: 0 (Herbicidal rate of 5% or less (almost no effect))
herbicidal effect on I: wild oat [16]: 0 (Herbicidal rate of 5% or less (almost no effect))
herbicidal effect on O: lambsquarters [17]: 0 (Herbicidal rate of 5% or less (almost no effect))
herbicidal effect on P: chickweed [18]: 3 (Herbicidal rate of 40% or more and less than 70%)
Herbicidal effect on C: oval-leafed pondweed (grade 0-5) [19]: 0 (Herbicidal rate of 5% or less (almost no effect))
Herbicidal effect on B: Japanese bulrush (grade 0-5) [20]: 0 (Herbicidal rate of 5% or less (almost no effect))
herbicidal effect on K: Italian ryegrass [21]: 4 (Herbicidal rate of 70% or more and less than 90%)
